One molecule from patent US9855244B2, “O/W-emulsion-type topical pharmaceutical compositions containing a retinoid” (GALDERMA RESEARCH & DEVELOPMENT, priority 2012, dated 2018) can be followed below.

The nature of data set [1]: Stability of Compound A in its principal oily solvents (determined by HPLC). The format is physicochemical. Conditions: limits 95%-105% relative to T0. On the procedure:
(§1) In order to produce an oil-in-water (O/W) emulsion according to the invention, pre-formulation studies were carried out in order to reveal the excipients enabling good solubilization and also good stability of the active agent.
Stability of Compound A in its Principal Oily Solvents (Determined by HPLC)
(§2) The limits set for good stability are 95%-105% as relative percentage with respect to T0.

Data set [2] is described as follows: Stability of Compound A in mixtures of excipients (solvent/surfactants), determined by HPLC. In kind it is physicochemical. Conditions: limits 95%-105% relative to T0.
Excerpt: as §2

A short description of data set [3]: "Single time" cutaneous penetration study, Franz cell, 16 h. The format is in vitro ADME. Conditions: 16 h application, ex vivo human skin, FIG. 1; stratum corneum, epidermis, dermis, receiving liquid. The text has this:
The in vitro tests are developed on glass diffusion cells (termed “Franz cells”) or Teflon diffusion cells, in static or dynamic modes. The cells consist of two compartments, a donor compartment and a receiver compartment, separated by a membrane, the orientation of which may be vertical or horizontal.
The membranes have a surface area generally of between 1 and 4 cm^2; they can be synthetic (cellulose, polydimethylsiloxane, etc.), but animal or human skin biopsies are preferable.
Samples of receiver liquid can be taken, at regular times over the course of 24 hours, in order to enable the establishment of the kinetics of diffusion through the skin when this proves necessary. At the end of a maximum of 24 h of application, in the case of the pharmaceutical and cosmetic products, the Franz cells are dismantled, and the substance studied is quantified in the following compartments: formulation remains, stratum corneum, epidermidis, dermis, and receiver liquid. The mass balance can in this case be established, which makes it possible to quantify the “absorbed” doses (present in the receiver liquid), the doses “having penetrated” (present in the viable epidermidis and the dermis) and the “nonabsorbed” doses (present in the formulation remains and the stratum corneum).
Two types of cutaneous penetration studies on human skin ex vivo were therefore carried out. […]

Data set [4] is described as follows: Pre-formulation studies: solubility of Compound A. In kind it is physicochemical. Conditions: in the solvents customarily used in the fatty phases of topical emulsions. On the procedure:
as §1

For `CC(C)(C)c1cc(-c2cc(-c3ccc(C(=O)O)cc3)ccc2OCCO)ccc1N1CCCC1` [Compound A, 3″-Tert-butyl-4′-(2-hydroxyethoxy)-4″-pyrrolidin-1-yl[1,1′;3′,1″]terphenyl-4-carboxylic acid], the Stability results is recorded as “Stable/Ok 6 Months” in data set [1] (Compound A 0.005% in Miglyol 812N (Caprylic/capric triglycerides), 40° C.); “Stable/Ok 6 Months” in data set [1] (Compound A 0.005% in Sweet almond oil, 40° C.); “Stable/Ok 6 Months” in data set [1] (Compound A 0.05% in Arlacel 83V Pharma (Sorbitan Sesquioleate), 40° C.); “Stable/Ok 6 Months” in data set [1] (Compound A 0.05% in Arlamol E (PPG-15 stearyl ether), 40° C.); “Unstable” in data set [1] (Compound A 0.05% in Arlasolve DMI (Dimethyl Isosorbide)); “Unstable” in data set [1] (Compound A 0.05% in Benzyl alcohol). Moreover, the Stability results in data set [1] (Compound A 0.05% in Brij 30 (Laureth-4)) is listed as “Unstable”; in data set [1] (Compound A 0.05% in Capryol 90 (Propylene glycol monocaprylate), 40° C.), “Stable/Ok 6 Months”; in data set [1] (Compound A 0.05% in Dipropylene Glycol Care (Dipropylene glycol)), “Unstable”; in data set [1] (Compound A 0.05% in Eutanol G (Octyldodecanol)) it was “Unstable”; in data set [1] (Compound A 0.05% in Labrafil M1944CS (Apricot Kernel Oil PEG-6 Ester), 40° C.), “Stable/Ok 6 Months”; in data set [1] (Compound A 0.05% in Lauroglycol FCC (Propylene glycol laurate), 40° C.), “Stable/Ok 6 Months”. In addition, the Stability results was “Unstable” in data set [1] (Compound A 0.05% in Myritol PC (Propylene glycol dicaprylate/dicaprate)); “Stable/Ok 6 Months” in data set [1] (Compound A 0.05% in Phenoxetol (Phenoxyethanol), 40° C.); “Unstable” in data set [2] (Compound A 0.05% in Arlacel 165/Lauroglycol FCC); “Unstable” in data set [2] (Compound A 0.05% in Cremophor EL/Labrafil M1944CS); “Unstable” in data set [2] (Compound A 0.05% in Cremophor EL/Lauroglycol FCC); “Unstable” in data set [2] (Compound A 0.05% in GlucateSS-Glucamate SSE-20/Arlamol E). Besides, the Stability results in data set [2] (Compound A 0.05% in Tween 80/Arlamol E), in data set [2] (Compound A 0.2% in Cremophor EL/Labrafil M1944CS), in data set [2] (Compound A 0.2% in Tween 80/Hexylene glycol) and in data set [2] (Compound A 0.2% in Tween 80/Lauroglycol FCC) was “Unstable” in each case. Besides, the “Distribution profile of compound A in the various skin compartments” value in data set [3] was “preferential localization and an accumulation of compound A in the stratum corneum and, less preferentially, in the epidermis”. In addition, the Solubility entry in data set [4] is “low solubility”.
